{"source": "paper PMC8949600", "about": "“In Vitro & In Vivo Studies on Identifying and Designing Temporin-1CEh from the Skin Secretion of Rana chensinensis as the Optimised Antibacterial Prototype Drug” (Pharmaceutics, 2022)", "key": {"[1]": {"assay": "Aggregation at high concentration (observation)", "format": "physicochemical", "conditions": "at a high concentration"}, "[2]": {"system": "erythrocytes from defibrinated horse blood", "assay": "Haemolysis assay", "conditions": "at 256 μM; horse erythrocytes", "from_the_text": "The erythrocytes from defibrinated horse blood (TCS Biosciences Ltd., Buckingham, UK) were used to perform the haemolysis assay, as described previously [27]. Equal volumes of PBS and 2% (v/v) of the non-ionic detergent, Triton X-100 (Sigma–Aldrich, St. Louis, MO, USA) in PBS solution, were used as negative and positive controls, respectively. HC50 was defined as the mean peptide concentration producing 50% haemolysis."}, "[3]": {"system": "S. aureus (ATCC CRM 6538)", "assay": "Membrane permeability assay (SYTOX GREEN)", "format": "cell-based", "source_text": "(§1) In order to test the permeability percentage of Temporin-1CEh and its analogues against S. aureus and E. coli, the SYTOX-GREEN nucleic acid stain was used in the assay indicated before. Tryptic soy broth (TSB) and Luria–Bertani (LB) broth were used as the media for S. aureus and E. coli, respectively."}, "E. coli (ATCC 8739) [4]": {"system": "E. coli (ATCC 8739)", "assay": "Membrane permeability assay (SYTOX GREEN)", "format": "cell-based", "source_text": "as §1"}, "[5]": {"system": "E. coli (ATCC 8739) biofilm", "format": "cell-based", "method": "(§2) The anti-biofilm activities were tested on S. aureus and E. coli, as indicated previously. For the positive and negative control, 20 mg/mL of vancomycin and 1% DMSO were applied, respectively, in both assays. In addition, 0.1% Crystal Violet was used as the biofilm colouring agent."}, "[6]": {"system": "S. aureus (ATCC CRM 6538) biofilm", "format": "cell-based", "method": "as §2"}, "S. aureus": {"system": "S. aureus", "assay": "Galleria mellonella larvae infection model, S. aureus", "format": "in vivo", "conditions": "at a concentration of 20 mg/kg; G. mellonella larvae", "method": "(§3) In this assay, the larvae of the wax moth (Galleria mellonella) were used as the infection model. The larvae (Livefood UK Ltd., Rooks Bridge, UK) were selected between 225 and 275 mg (9 larvae per group in a Petri dish). For the positive and negative controls, 50 mg/kg of vancomycin (25 mg/kg of ampicillin for E. coli) and PBS were employed. Final concentration of S. aureus and E. coli cells injected was 5 × 10^5 and 5 × 10^6 CFU/larva, respectively. The assay was performed as described before and the number of alive larvae was recorded every 12 h."}, "[7]": {"system": "K. pneumoniae (ATCC 43816)", "format": "cell-based", "method": "(§4) A measure of 5 × 10^5 CFU/mL of bacterial suspension including 2-fold dilution peptides (ranging from 1 µM to 512 µM) was incubated in 96-well plates for 16–20 h at 37 °C. For the positive and negative control, 200 mg/L of final concentration of norfloxacin and 1% DMSO were applied, respectively. […] Subsequently, 10 µL of the solution in each clear well was dropped on a Mueller–Hinton agar (MHA) plate and incubated at 37 °C for 16–20 h. The lowest concentration without colony growth was considered as the MBCs.\n(§5) Mueller–Hinton broth (MHB) at pH 6.0 and 8.0 as well as MHB containing 10% of Fetal Bovine Serum (FBS), 150 mM of NaCl, 1 mM of MgCl2 and 4 µM of FeCl3, respectively, were prepared. In particular, the pathogens were diluted by the preprepared mediums to a final concentration of 5 × 10^5 CFU/mL after growing to the logarithmic phase, and other operations followed the MIC assay."}, "[8]": {"system": "P. aeruginosa (ATCC 27853)", "format": "cell-based", "method": "as §4, §5"}, "E. faecalis (NCTC 12697)": {"system": "E. faecalis (NCTC 12697)", "format": "cell-based", "method": "as §4, §5"}, "[9]": {"system": "S. aureus (ATCC CRM 6538)", "format": "cell-based", "method": "as §4, §5"}, "E. coli (ATCC 8739) [10]": {"system": "E. coli (ATCC 8739)", "format": "cell-based", "method": "as §4, §5"}, "MRSA (NCTC 12493)": {"system": "MRSA (NCTC 12493)", "format": "cell-based", "method": "as §4, §5"}, "E. coli": {"system": "E. coli", "assay": "Galleria mellonella larvae infection model, E. coli", "format": "in vivo", "conditions": "all tested concentrations; G. mellonella larvae, 5 × 10^6 CFU/larva", "method": "as §3"}, "[11]": {"system": "S. aureus (ATCC CRM 6538)", "conditions": "MIC of Temporin-1CEa ref 29; cited from earlier work", "source_text": "(§6) Table 2 The MICs and MBCs of Temporin-1CEh and its analogues as well as Temporin-1CEa against the S. aureus (ATCC CRM 6538), MRSA (NCTC 12493), E. faecalis (NCTC 12697), E. coli (ATCC 8739), P. aeruginosa (ATCC 27853) and K. pneumonia (ATCC 43816), as well as the MICs of Temporin-1CEa against S. aureus and E. coli. | column: MIC/MBC (μM) / Temporin-1CEa"}, "E. coli (ATCC 8739) [12]": {"system": "E. coli (ATCC 8739)", "conditions": "MIC of Temporin-1CEa ref 29; cited from earlier work", "source_text": "as §6"}, "[13]": {"system": "erythrocytes from defibrinated horse blood", "conditions": "cited from earlier work", "method": "The calculated HC50 of Temporin-1CEh was 152.6 μM compared to that of Temporin-1CEa which was 160 μM [29]. Several modified strategies were used to optimise their antibacterial activity."}}, "note": "Where two headings read alike, the source gives them in different places. Bridge positions count the residues as written; N and C are the ends. Peptide text beside a SMILES is read from it. I, II: the chains in the order shown.", "data": [{"compound": "CC[C@H](C)[C@H](NC(=O)[C@H](CCCCNC(=O)[C@H](CCCCN)NC(=O)[C@H](Cc1c[nH]c2ccccc12)NC(=O)[C@@H]1CCCN1C(=O)[C@@H](NC(=O)[C@H](Cc1c[nH]c2ccccc12)NC(=O)[C@H](CCCCN)NC(=O)[C@@H](N)CCCCN)C(C)C)NC(=O)[C@H](CCCCN)NC(=O)[C@H](Cc1c[nH]c2ccccc12)NC(=O)[C@@H]1CCCN1C(=O)[C@@H](NC(=O)[C@H](Cc1c[nH]c2ccccc12)NC(=O)[C@H](CCCCN)NC(=O)[C@@H](N)CCCCN)C(C)C)C(=O)N[C@@H](C)C(=O)N[C@@H](CC(N)=O)C(=O)N[C@H](C(=O)N[C@@H](CC(C)C)C(N)=O)[C@@H](C)CC", "note": "[Peptide T1CEh-KKPWW2] (I: H-KKWVPWKKIANIL-NH2 / II: H-KKWVPWK; amide I:8-II:C; N-terminus assumed)", "values": [{"measurement": "aggregation", "setting": "[1]", "value": "aggregation can be found in T1CEh-KKPWW2 at a high concentration, achieving hydrogel"}, {"measurement": "haemolysis rate", "setting": "[2]", "value": 63, "unit": "%"}, {"measurement": "permeability rates compared with that of Temporin-1CEh", "setting": "[3]", "value": "higher permeability rates"}, {"measurement": "permeability rates compared with that of Temporin-1CEh", "setting": "E. coli (ATCC 8739) [4]", "value": "higher permeability rates"}, {"measurement": "MBEC", "setting": "[5]", "value": "> 256", "unit": "µM"}, {"measurement": "MBIC", "setting": "[5]", "value": 8, "unit": "µM"}, {"measurement": "MBEC", "setting": "[6]", "value": "> 256", "unit": "µM"}, {"measurement": "MBIC", "setting": "[6]", "value": 32, "unit": "µM"}, {"measurement": "mortality of S. aureus infected larvae", "setting": "S. aureus", "value": "significantly reduced the mortality"}, {"measurement": "MBC", "setting": "[7]; ATCC 43816", "value": 8, "unit": "µM"}, {"measurement": "MIC", "setting": "[7]; ATCC 43816", "value": 4, "unit": "µM"}, {"measurement": "MIC", "setting": "[7]; ATCC 43816, pH 6", "value": 8, "unit": "µM"}, {"measurement": "MIC", "setting": "[7]; ATCC 43816, pH 7", "value": 4, "unit": "µM"}, {"measurement": "MIC", "setting": "[7]; ATCC 43816, pH 8", "value": 4, "unit": "µM"}, {"measurement": "MBC", "setting": "[8]; ATCC 27853", "value": 16, "unit": "µM"}, {"measurement": "MIC", "setting": "[8]; ATCC 27853", "value": 8, "unit": "µM"}, {"measurement": "MIC", "setting": "[8]; ATCC 27853, pH 6", "value": 32, "unit": "µM"}, {"measurement": "MIC", "setting": "[8]; ATCC 27853, pH 7", "value": 8, "unit": "µM"}, {"measurement": "MIC", "setting": "[8]; ATCC 27853, pH 8", "value": 8, "unit": "µM"}, {"measurement": "decrease of MIC comparing with that of T1CEh-KKPWW", "setting": "[8]; P. aeruginosa", "value": "twofold"}, {"measurement": "decrease of MIC comparing with that of T1CEh-KKPWW", "setting": "E. faecalis (NCTC 12697); E. faecalis", "value": "four-fold"}, {"measurement": "MBC", "setting": "E. faecalis (NCTC 12697); NCTC 12697", "value": 64, "unit": "µM"}, {"measurement": "MIC", "setting": "E. faecalis (NCTC 12697); NCTC 12697", "value": 32, "unit": "µM"}, {"measurement": "MIC", "setting": "E. faecalis (NCTC 12697); NCTC 12697, pH 6", "value": 128, "unit": "µM"}, {"measurement": "MIC", "setting": "E. faecalis (NCTC 12697); NCTC 12697, pH 7", "value": 32, "unit": "µM"}, {"measurement": "MIC", "setting": "E. faecalis (NCTC 12697); NCTC 12697, pH 8", "value": 64, "unit": "µM"}, {"measurement": "MBC", "setting": "[9]; ATCC CRM 6538", "value": 8, "unit": "µM"}, {"measurement": "MIC", "setting": "[9]; ATCC CRM 6538", "value": 4, "unit": "µM"}, {"measurement": "MIC", "setting": "[9]; ATCC CRM 6538, pH 6", "value": 8, "unit": "µM"}, {"measurement": "MIC", "setting": "[9]; ATCC CRM 6538, pH 7", "value": 4, "unit": "µM"}, {"measurement": "MIC", "setting": "[9]; ATCC CRM 6538, pH 8", "value": 2, "unit": "µM"}, {"measurement": "MBC", "setting": "E. coli (ATCC 8739) [10]; ATCC 8739", "value": 2, "unit": "µM"}, {"measurement": "MIC", "setting": "E. coli (ATCC 8739) [10]; ATCC 8739", "value": 2, "unit": "µM"}, {"measurement": "MIC", "setting": "E. coli (ATCC 8739) [10]; ATCC 8739, pH 6", "value": 2, "unit": "µM"}, {"measurement": "MIC", "setting": "E. coli (ATCC 8739) [10]; ATCC 8739, pH 7", "value": 2, "unit": "µM"}, {"measurement": "MIC", "setting": "E. coli (ATCC 8739) [10]; ATCC 8739, pH 8", "value": 2, "unit": "µM"}, {"measurement": "decrease of MIC comparing with that of T1CEh-KKPWW", "setting": "E. coli (ATCC 8739) [10]; E. coli", "value": "twofold"}, {"measurement": "decrease of MIC comparing with that of T1CEh-KKPWW", "setting": "MRSA (NCTC 12493); MRSA", "value": "four-fold"}, {"measurement": "MBC", "setting": "MRSA (NCTC 12493); NCTC 12493", "value": 16, "unit": "µM"}, {"measurement": "MIC", "setting": "MRSA (NCTC 12493); NCTC 12493", "value": 8, "unit": "µM"}, {"measurement": "MIC", "setting": "MRSA (NCTC 12493); NCTC 12493, pH 6", "value": 16, "unit": "µM"}, {"measurement": "MIC", "setting": "MRSA (NCTC 12493); NCTC 12493, pH 7", "value": 8, "unit": "µM"}, {"measurement": "MIC", "setting": "MRSA (NCTC 12493); NCTC 12493, pH 8", "value": 2, "unit": "µM"}, {"measurement": "mortality of E. coli infected larvae", "setting": "E. coli", "value": "reduced the mortality"}]}, {"compound": "FVDLKKIANIINSIF-NH2 [Temporin-1CEa]", "values": [{"measurement": "MIC", "setting": "[11]", "value": 13.1, "unit": "µM"}, {"measurement": "MIC", "setting": "E. coli (ATCC 8739) [12]", "value": ">100", "unit": "µM"}, {"measurement": "HC50", "setting": "[13]", "value": 160, "unit": "µM"}]}]}
